How the values were obtained:
A3G-Luc/Vif = A3G-Luc/Vif luciferase screen in 293T cells stably co-expressing A3G-Luc and HIV-1 Vif; format: cell-based, human; settings: 10 μM, 48 hrs, DMSO = 100%
Description: FIG. 6. 293T cell clone #6 stably co-expressing A3G-Luciferase fusion protein together with HIV-1 Vif was used. Small molecule compounds were tested for their effects on stability of A3G and inhibition of Vif activity against A3G by measuring luciferase activity, relative to treatment with control DMSO only. The relative % luciferase activity was higher after treatment with NU compounds than DMSO.
[…]. After sorting, expression of both A3G-Luc and Vif was confirmed by immunoblotting using antibody against both A3G and Vif.
(§1) To screen compounds that can boost A3G levels, 293T cells (25,000 cells per well in 96-well plate) stably expressing A3G-Luc protein or A3G-Luc/Vif proteins were plated. After 24 hrs post plating culture medium was replaced with 100 μl of new medium containing either DMSO as a control or various compounds (10 μM concentration). After 48 hrs of incubation with compounds culture medium was removed from each well and replaced with 100 μl of Britelite Plus luciferase assay substrate (PerkinElmer). Following 5 min. of incubation at room temperature, 75 μl of each cell lysate was transferred to a 96-well OptiPlate 96 (PerkinElmer) and luminescence was measured in a VICTOR X2 Multilabel Reader (PerkinElmer). Relative activity of compounds for their boosting capability A3G-Luc activity was calculated by plotting DMSO-treated A3G-Luc or A3G-Luc/Vif cells as 100%. Cellular cytotoxicity was measured by counting number of cells after 48 hrs of incubation with compounds compared to DMSO treated cells.

A3G-Luc = A3G-Luc luciferase screen in 293T cells stably expressing A3G-Luc; format: cell-based, human; settings: 10 μM, 48 hrs, DMSO = 100%
Description: This background led to construction of cell lines to use in a search for compounds that might boost levels of A3s in the HIV target cells of the majority of HIV-infected persons who are non-controllers. The goal is to test a strategy of using such a booster in acute/early infection to prevent the hypothesized decrease of A3G and related A3s in an effort to increase “control” in persons lacking HLA B57/27-associated control. […] 293T and TZM-bl cells were maintained in DMEM (containing 4.5 g/liter glucose, L-glutamine, and sodium pyruvate) medium plus 10% fetal bovine serum, 50 IU/ml penicillin, and 50 μg/ml streptomycin at 37° C. and 5% CO2 throughout the experiments. […]. After collecting viral supernatant, 293T cells were infected with viral particles harboring the A3G-Luc expressing vector and selected with puromycin (0.75 μg/ml) for three days. Ten single cell clones of stable cells were isolated and tested for expression of A3G-Luc protein by both immunoblotting using antibody against A3G and measuring luciferase activity. Expressions in cell lines used for subsequent experiments are depicted in FIG. 2, upper panel. The A3G-Luc fusion protein was sensitive to Vif-mediated degradation (FIG. 3). Similar cells lines stably expressing A3F were constructed with the same methods (not shown).
as §1, with “After 24 hrs post plating culture medium was replaced with 100 μl of new medium containing either DMSO as a control or various compounds (10 μM concentration).” left out

In the case of `COc1ccc(C(=O)Nc2ccc3c(c2)OCO3)cc1NC(=O)C(C)C` [NU-50], the “Vif-A3G-Luc Activity (% of RLUs compared to DMSO treated control)” value (A3G-Luc/Vif) is reported as 145% and the “A3G-Luc Activity (% of Relative Light Units compared to DMSO treated control)” value (A3G-Luc) is reported as 115%.
With `COc1ccc(CNC(=O)c2ccc(OC)c(NC(=O)C(C)C)c2)cc1` [NU-568] the “Vif-A3G-Luc Activity (% of RLUs compared to DMSO treated control)” value (A3G-Luc/Vif) was 87% and the “A3G-Luc Activity (% of Relative Light Units compared to DMSO treated control)” value (A3G-Luc) was 96%.
In the case of `COc1ccc(C(=O)Nc2ccc(OC)c(OC)c2)cc1NC(=O)C(C)C` [NU-572], the “Vif-A3G-Luc Activity (% of RLUs compared to DMSO treated control)” value (A3G-Luc/Vif) is reported as 91% and the “A3G-Luc Activity (% of Relative Light Units compared to DMSO treated control)” value (A3G-Luc) is reported as 98%.
For `COc1ccc(C(=O)Nc2ccc(Cl)c(Cl)c2)cc1NC(=O)C1CCOCC1` [NU-305], the “Vif-A3G-Luc Activity (% of RLUs compared to DMSO treated control)” value (A3G-Luc/Vif) was 109% and the “A3G-Luc Activity (% of Relative Light Units compared to DMSO treated control)” value (A3G-Luc) was 121%.
In the case of `CCC(C)(C)C(=O)Nc1cc(C(=O)Nc2ccc(Cl)c(Cl)c2)ccc1OC` [NU-457], the “Vif-A3G-Luc Activity (% of RLUs compared to DMSO treated control)” value (A3G-Luc/Vif) is reported as 93% and the “A3G-Luc Activity (% of Relative Light Units compared to DMSO treated control)” value (A3G-Luc) is reported as 120%.
For `COc1ccc(C(=O)Nc2ccc(Cl)c(Cl)c2)cc1NC(=O)C1CC1` [NU-304], the “Vif-A3G-Luc Activity (% of RLUs compared to DMSO treated control)” value (A3G-Luc/Vif) was 138% and the “A3G-Luc Activity (% of Relative Light Units compared to DMSO treated control)” value (A3G-Luc) was 124%.
`COc1ccc(C(=O)Nc2ccc(Cl)c(Cl)c2)cc1NC(=O)CC1CCCC1` [NU-453] was tested, and the “Vif-A3G-Luc Activity (% of RLUs compared to DMSO treated control)” value (A3G-Luc/Vif) was 95% and the “A3G-Luc Activity (% of Relative Light Units compared to DMSO treated control)” value (A3G-Luc) was 169%.
For `COc1ccc(C(=O)NCc2ccc(F)cc2)cc1NC(=O)C(C)C` [NU-567], the “Vif-A3G-Luc Activity (% of RLUs compared to DMSO treated control)” value (A3G-Luc/Vif) was 76% and the “A3G-Luc Activity (% of Relative Light Units compared to DMSO treated control)” value (A3G-Luc) was 93%.
For `COc1ccc(C(=O)Nc2ccc(Cl)c(Cl)c2)cc1NS(=O)(=O)C1CCC1` [NU-470], the “Vif-A3G-Luc Activity (% of RLUs compared to DMSO treated control)” value (A3G-Luc/Vif) was 85% and the “A3G-Luc Activity (% of Relative Light Units compared to DMSO treated control)” value (A3G-Luc) was 100%.
`CCCCOc1ccc(C(=O)Nc2ccc(Cl)c(Cl)c2)cc1NC(=O)C1CCC1` [NU-614] was tested, and the “Vif-A3G-Luc Activity (% of RLUs compared to DMSO treated control)” value (A3G-Luc/Vif) was 99% and the “A3G-Luc Activity (% of Relative Light Units compared to DMSO treated control)” value (A3G-Luc) was 96%.
In the case of `COc1ccc(C(=O)Nc2ccc(Cl)c(Cl)c2)cc1NC(=O)CC(C)(C)C` [NU-474], the “Vif-A3G-Luc Activity (% of RLUs compared to DMSO treated control)” value (A3G-Luc/Vif) is reported as 71% and the “A3G-Luc Activity (% of Relative Light Units compared to DMSO treated control)” value (A3G-Luc) is reported as 105%.
In the case of `COc1ccc(C(=O)Nc2ccc(Cl)c(Cl)c2)cc1NC(=O)Cc1ccccc1` [NU-308], the “Vif-A3G-Luc Activity (% of RLUs compared to DMSO treated control)” value (A3G-Luc/Vif) is reported as 113% and the “A3G-Luc Activity (% of Relative Light Units compared to DMSO treated control)” value (A3G-Luc) is reported as 92%.
For `COc1ccc(C(=O)Nc2ccc(F)c(F)c2)cc1NC(=O)C(C)C` [NU-571], the “Vif-A3G-Luc Activity (% of RLUs compared to DMSO treated control)” value (A3G-Luc/Vif) was 104% and the “A3G-Luc Activity (% of Relative Light Units compared to DMSO treated control)” value (A3G-Luc) was 116%.
In the case of `COc1ccc(C(=O)NC2CCCCC2)cc1NC(=O)C(C)C` [NU-573], the “Vif-A3G-Luc Activity (% of RLUs compared to DMSO treated control)” value (A3G-Luc/Vif) is reported as 80% and the “A3G-Luc Activity (% of Relative Light Units compared to DMSO treated control)” value (A3G-Luc) is reported as 117%.
`COc1ccc(C(=O)Nc2ccc(Cl)c(Cl)c2)cc1NC(=O)CC(C)C` [NU-452] was tested, and the “Vif-A3G-Luc Activity (% of RLUs compared to DMSO treated control)” value (A3G-Luc/Vif) was 110% and the “A3G-Luc Activity (% of Relative Light Units compared to DMSO treated control)” value (A3G-Luc) was 140%.
For `COc1ccc(C(=O)NCc2ccncc2)cc1NC(=O)C(C)C` [NU-569], the “Vif-A3G-Luc Activity (% of RLUs compared to DMSO treated control)” value (A3G-Luc/Vif) was 85% and the “A3G-Luc Activity (% of Relative Light Units compared to DMSO treated control)” value (A3G-Luc) was 98%.
In the case of `COc1ccc(C(=O)Nc2ccc(Cl)c(Cl)c2)cc1NC(=O)C1C2CC3CC(C2)CC1C3` (centres unmarked) [NU-459], the “Vif-A3G-Luc Activity (% of RLUs compared to DMSO treated control)” value (A3G-Luc/Vif) is reported as 69% and the “A3G-Luc Activity (% of Relative Light Units compared to DMSO treated control)” value (A3G-Luc) is reported as 106%.
For `COc1ccc(C(=O)Nc2ccc(Cl)c(Cl)c2)cc1NC(=O)c1cccnc1` [NU-307], the “Vif-A3G-Luc Activity (% of RLUs compared to DMSO treated control)” value (A3G-Luc/Vif) was 91% and the “A3G-Luc Activity (% of Relative Light Units compared to DMSO treated control)” value (A3G-Luc) was 102%.
With `COc1ccc(C(=O)N2CCc3ccccc3C2)cc1NC(=O)C(C)C` [NU-570] the “Vif-A3G-Luc Activity (% of RLUs compared to DMSO treated control)” value (A3G-Luc/Vif) was 87% and the “A3G-Luc Activity (% of Relative Light Units compared to DMSO treated control)” value (A3G-Luc) was 96%.
For `COc1ccc(C(=O)NCc2ccccc2)cc1NC(=O)C(C)C` [NU-566], the “Vif-A3G-Luc Activity (% of RLUs compared to DMSO treated control)” value (A3G-Luc/Vif) was 80% and the “A3G-Luc Activity (% of Relative Light Units compared to DMSO treated control)” value (A3G-Luc) was 106%.
In the case of `COc1ccc(C(=O)Nc2ccncc2)cc1NC(=O)C(C)C` [NU-565], the “Vif-A3G-Luc Activity (% of RLUs compared to DMSO treated control)” value (A3G-Luc/Vif) is reported as 55% and the “A3G-Luc Activity (% of Relative Light Units compared to DMSO treated control)” value (A3G-Luc) is reported as 66%.
`CCC(C)C(=O)Nc1cc(C(=O)Nc2ccc(Cl)c(Cl)c2)ccc1OC` (centres unmarked) [NU-456] was tested, and the “Vif-A3G-Luc Activity (% of RLUs compared to DMSO treated control)” value (A3G-Luc/Vif) was 113% and the “A3G-Luc Activity (% of Relative Light Units compared to DMSO treated control)” value (A3G-Luc) was 148%.
`COc1ccc(C(=O)Nc2ccc(Cl)c(Cl)c2)cc1NS(=O)(=O)C1CC1` [NU-469] was tested, and the “Vif-A3G-Luc Activity (% of RLUs compared to DMSO treated control)” value (A3G-Luc/Vif) was 82% and the “A3G-Luc Activity (% of Relative Light Units compared to DMSO treated control)” value (A3G-Luc) was 100%.
In the case of `COc1ccc(C(=O)Nc2ccc(Cl)c(Cl)c2)cc1NC(=O)C1CCCC1` [NU-455], the “Vif-A3G-Luc Activity (% of RLUs compared to DMSO treated control)” value (A3G-Luc/Vif) is reported as 131% and the “A3G-Luc Activity (% of Relative Light Units compared to DMSO treated control)” value (A3G-Luc) is reported as 188%.
With `COc1ccc(C(=O)Nc2ccc(Cl)c(Cl)c2)cc1NC(=O)c1ccncc1` [NU-306] the “Vif-A3G-Luc Activity (% of RLUs compared to DMSO treated control)” value (A3G-Luc/Vif) was 84% and the “A3G-Luc Activity (% of Relative Light Units compared to DMSO treated control)” value (A3G-Luc) was 96%.
`COc1ccc(C(=O)Nc2ccc(Cl)c(Cl)c2)cc1NC(=O)c1ccc2c(c1)OCO2` [NU-303] was tested, and the “Vif-A3G-Luc Activity (% of RLUs compared to DMSO treated control)” value (A3G-Luc/Vif) was 71% and the “A3G-Luc Activity (% of Relative Light Units compared to DMSO treated control)” value (A3G-Luc) was 90%.
With `COc1ccc(C(=O)Nc2ccc(Cl)c(Cl)c2)cc1NC(=O)N1CCCCC1` [NU-473] the “Vif-A3G-Luc Activity (% of RLUs compared to DMSO treated control)” value (A3G-Luc/Vif) was 84% and the “A3G-Luc Activity (% of Relative Light Units compared to DMSO treated control)” value (A3G-Luc) was 110%.
For `CCCCOc1ccc(C(=O)Nc2ccc(Cl)c(Cl)c2)cc1NC(=O)CC1CC1` [NU-615], the “Vif-A3G-Luc Activity (% of RLUs compared to DMSO treated control)” value (A3G-Luc/Vif) was 105% and the “A3G-Luc Activity (% of Relative Light Units compared to DMSO treated control)” value (A3G-Luc) was 102%.
`COc1ccc(C(=O)Nc2ccc(Cl)c(Cl)c2)cc1NC(=O)CC1CCCCC1` [NU-454] was tested, and the “Vif-A3G-Luc Activity (% of RLUs compared to DMSO treated control)” value (A3G-Luc/Vif) was 84% and the “A3G-Luc Activity (% of Relative Light Units compared to DMSO treated control)” value (A3G-Luc) was 86%.
`COc1ccc(C(=O)Nc2ccc(Cl)c(Cl)c2)cc1NC(=O)c1ccccc1` [NU-309] was tested, and the “Vif-A3G-Luc Activity (% of RLUs compared to DMSO treated control)” value (A3G-Luc/Vif) was 94% and the “A3G-Luc Activity (% of Relative Light Units compared to DMSO treated control)” value (A3G-Luc) was 100%.
In the case of `COc1ccc(C(=O)Nc2ccc(Cl)c(Cl)c2)cc1NC(=O)OC(C)C` [NU-461], the “Vif-A3G-Luc Activity (% of RLUs compared to DMSO treated control)” value (A3G-Luc/Vif) is reported as 70% and the “A3G-Luc Activity (% of Relative Light Units compared to DMSO treated control)” value (A3G-Luc) is reported as 124%.
